How the values were obtained:
[1] = target: T1, EGFR L858R/T790M/C797S (BaF3-LTC cells) (Homo sapiens, UniProt P00533, C797S/L858R/T790M); test: EGFR degradation HTRF assay, BaF3-LTC cells; assay type: cell-based; settings: BaF3-LTC cells; for DC50: EGFR degradation, IC50 (DC50) from curve fit, read-out: DC50(nM) BaF3-LTC; for Dmax: maximum percentage of inhibition (degradation), read-out: Dmax (%) BaF3-LTC
T1 construct: expressed in transfected cells; host or cells: BaF3
In short: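 EGFR remaining after a 16 h, 37 °C exposure (8 doses, 5-fold steps from 10 uM final, 0.2% DMSO) was quantified by HTRF antibodies in cell lysate. Percent inhibition relative to DMSO control was fitted by four-parameter logistic to give DC50; Dmax denotes maximal degradation.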

[2] = test system: EGFR Del19/T790M/C797S (H1975-clone #28); test: EGFR degradation HTRF assay, H1975-clone #28 DTC cells; assay type: cell-based; settings: H1975 # 28 DTC cells; for DC50: EGFR degradation, IC50 (DC50) from curve fit, read-out: DC50(nM) H1975 # 28 DTC; for Dmax (%) H1975 # 28 DTC: maximum percentage of inhibition (degradation)
In short: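 Read-out is an HTRF EGFR signal (337 nm excitation, 665/620 nm) from lysates of mutant-EGFR H1975 clones in which only the exogenous EGFR survives knockout. Treatment ran 16h at 37° C. from 10 uM final downward in 5-fold steps. DC50 comes from a logistic fit and Dmax is the maximal degradation.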

T1 sequence (P00533 25-1210 T790M/C797S/L858R): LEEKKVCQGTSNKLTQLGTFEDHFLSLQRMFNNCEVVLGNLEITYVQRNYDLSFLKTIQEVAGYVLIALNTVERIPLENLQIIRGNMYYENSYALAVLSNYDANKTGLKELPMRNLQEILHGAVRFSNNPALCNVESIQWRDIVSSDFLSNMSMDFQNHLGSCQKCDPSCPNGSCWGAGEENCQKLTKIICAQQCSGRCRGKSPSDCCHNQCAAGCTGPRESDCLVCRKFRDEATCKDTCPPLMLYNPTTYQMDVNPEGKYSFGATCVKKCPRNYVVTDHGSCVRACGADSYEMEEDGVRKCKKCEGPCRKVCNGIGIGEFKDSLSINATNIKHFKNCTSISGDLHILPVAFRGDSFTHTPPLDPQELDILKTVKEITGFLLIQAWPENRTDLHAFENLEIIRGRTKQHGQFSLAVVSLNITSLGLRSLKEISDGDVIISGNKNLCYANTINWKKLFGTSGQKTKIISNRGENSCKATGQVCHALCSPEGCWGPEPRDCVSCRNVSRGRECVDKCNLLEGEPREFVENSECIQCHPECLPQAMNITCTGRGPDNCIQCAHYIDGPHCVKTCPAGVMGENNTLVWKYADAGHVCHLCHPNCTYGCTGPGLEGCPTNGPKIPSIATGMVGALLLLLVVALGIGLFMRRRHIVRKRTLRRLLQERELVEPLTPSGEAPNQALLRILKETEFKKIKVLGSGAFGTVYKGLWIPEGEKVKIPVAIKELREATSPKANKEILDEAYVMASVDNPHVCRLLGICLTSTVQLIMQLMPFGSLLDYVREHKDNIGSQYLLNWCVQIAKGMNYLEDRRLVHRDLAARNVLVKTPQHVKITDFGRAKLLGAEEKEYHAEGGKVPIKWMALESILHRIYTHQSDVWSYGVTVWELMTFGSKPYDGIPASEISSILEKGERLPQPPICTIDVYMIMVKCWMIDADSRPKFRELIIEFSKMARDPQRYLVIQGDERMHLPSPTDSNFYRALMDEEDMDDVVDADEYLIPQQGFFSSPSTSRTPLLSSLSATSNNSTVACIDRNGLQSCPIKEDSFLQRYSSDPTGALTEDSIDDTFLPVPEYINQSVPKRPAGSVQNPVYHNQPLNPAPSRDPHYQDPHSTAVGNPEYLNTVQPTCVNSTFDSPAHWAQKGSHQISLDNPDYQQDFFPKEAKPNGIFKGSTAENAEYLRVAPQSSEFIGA

Row | DC50 [1] [nM] | Dmax [1] [%] | DC50 [2] [nM] | SMILES | Dmax (%) H1975 # 28 DTC [2] [%]
1 | 3.14 | 96.4 | 0.64 | CCOc1cc(N2CCC(N3CCN(CCc4ccc5c(c4)oc(=O)n5C4CCC(=O)NC4=O)CC3)CC2)c(CC)cc1Nc1ncc(Br)c(Nc2ccc3nc(C)ccc3c2P(C)(C)=O)n1 (stereo not drawn) [Example 676, 3-(6-(2-(4-(1-(4-((5-bromo-4-((5-(dimethylphosphoryl)-2-methylquinolin-6-yl)amino)pyrimidin-2-yl)amino)-5-ethoxy-2-ethylphenyl)piperidin-4-yl)piperazin-1-yl)ethyl)-2-oxobenzo[d]oxazol-3(2H)-yl)piperidine-2,6-diQne] | 88.89
2 | 17.3 | 88.6 | 3.55 | CCOc1cc(N2CCC(N3CCN(CCc4c(F)cc5c(oc(=O)n5C5CCC(=O)NC5=O)c4C)CC3)CC2)c(CC)cc1Nc1ncc(Br)c(Nc2ccc3c(=O)n(CC)ncc3c2P(C)(C)=O)n1 (stereo not drawn) [Example 613, 3-(6-(2-(4-(1-(4-((5-bromo-4-((5-(dimethylphosphoryl)-2-ethyl-1-oxo-1,2-dihydrophthalazin-6-yl)amino)pyrimidin-2-yl)amino)-5-ethoxy-2-ethylphenyl)piperidin-4-yl)piperazin-1-yl)ethyl)-5-fluoro-7-methyl-2-oxobenzo[d]oxazol-3(2H)-yl)piperidine-2,6-dione] | 71.47
3 | 6.68 | 91.4 | 0.593 | CCc1cc(Nc2ncc(Br)c(Nc3ccc4nc(C)ccc4c3P(C)(C)=O)n2)c(OC)cc1N1CCC(N2CCN(CCC3CN(c4cccc5c4CN(C4CCC(=O)NC4=O)C5=O)C3)CC2)CC1 (stereo not drawn) [Example 692, 3-(4-(3-(2-(4-(1-(4-((5-bromo-4-((5-(dimethylphosphoryl)-2-methylquinolin-6-yl)amino)pyrimidin-2-yl)amino)-2-ethyl-5-methoxyphenyl)piperidin-4-yl)piperazin-1-yl)ethyl)azetidin-1-yl)-1-oxoisoindolin-2-yl)piperidine-2,6-dione] | 73
4 | 1.42 | 93.7 | 0.617 | CCc1cc(Nc2ncc(Br)c(Nc3ccc4nc(C)ccc4c3P(C)(C)=O)n2)c(OC2CC2)cc1N1CCC(N2CCN(CCc3cccc4c3n(C)c(=O)n4C3CCC(=O)NC3=O)CC2)CC1 (stereo not drawn) [Example 642, 3-(4-(2-(4-(1-(4-((5-bromo-4-((5-(dimethylphosphoryl)-2-methylquinolin-6-yl)amino)pyrimidin-2-yl)amino)-5-cyclopropoxy-2-ethylphenyl)piperidin-4-yl)piperazin-1-yl)ethyl)-3-methyl-2-oxo-2,3-dihydro-1H-benzo[d]imidazol-1-yl)piperidine-2,6-dione] | 76.78
5 | 31.8 | 78.6 | 6.94 | CCc1ccc2c(P(C)(C)=O)c(Nc3nc(Nc4cc(CC)c(N5CCC(N6CCN(C(=O)[C@@H]7CCN(c8cc(F)c([C@H]9CCC(=O)NC9=O)c(F)c8)C7)CC6)CC5)cc4OC(F)(F)F)ncc3Br)ccc2n1 [Example 649, (R)-3-(4-((R)-3-(4-(1-(4-((5-bromo-4-((5-(dimethylphosphoryl)-2-ethylquinolin-6-yl)amino)pyrimidin-2-yl)amino)-2-ethyl-5-(trifluoromethoxy)phenyl)piperidin-4-yl)piperazine-1-carbonyl)pyrrolidin-1-yl)-2,6-difluorophenyl)piperidine-2,6-dione] | 75.95
6 | 4.11 | 87.4 | 1.18 | CCc1cc(Nc2ncc(Br)c(Nc3ccc4nc(C)ccc4c3P(C)(C)=O)n2)c(OC2CC2)cc1N1CCC(N2CCN(CC3CN(c4cccc5c4oc(=O)n5C4CCC(=O)NC4=O)C3)CC2)CC1 (stereo not drawn) [Example 600, 3-(7-(3-((4-(1-(4-((5-bromo-4-((5-(dimethylphosphoryl)-2-methylquinolin-6-yl)amino)pyrimidin-2-yl)amino)-5-cyclopropoxy-2-ethylphenyl)piperidin-4-yl)piperazin-1-yl)methyl)azetidin-1-yl)-2-oxobenzo[d]oxazol-3(2H)-yl)piperidine-2,6-dione] | 83.32
7 | 3.72 | – | 0.944 | CCOc1cc(N2CCC(N3CCN(CCc4cccc5c4n(CC)c(=O)n5C4CCC(=O)NC4=O)CC3)CC2)c(CC)cc1Nc1ncc(Br)c(Nc2ccc3nc(CC)ncc3c2P(C)(C)=O)n1 (stereo not drawn) [Example 737, 3-(4-(2-(4-(1-(4-((5-bromo-4-((5-(dimethylphosphoryl)-2-ethylquinazolin-6-yl)amino)pyrimidin-2-yl)amino)-5-ethoxy-2-ethylphenyl)piperidin-4-yl)piperazin-1-yl)ethyl)-3-ethyl-2-oxo-2,3-dihydro-1H-benzo[d]imidazol-1-yl)piperidine-2,6-dione] | 78.21
8 | 12.4 | 91.4 | 1.06 | CCc1cc(Nc2ncc(Br)c(Nc3ccc4c(C)nccc4c3P(C)(C)=O)n2)c(OC)cc1N1CCC(N2CCN(CCc3cc(F)c([C@H]4CCC(=O)NC4=O)c(F)c3)CC2)CC1 [Example 684, (R)-3-(4-(2-(4-(1-(4-((5-bromo-4-((5-(dimethylphosphoryl)-1-methylisoquinolin-6-yl)amino)pyrimidin-2-yl)amino)-2-ethyl-5-methoxyphenyl)piperidin-4-yl)piperazin-1-yl)ethyl)-2,6-difluorophenyl)piperidine-2,6-dione] | 88.35
9 | 0.867 | 96.3 | 0.582 | CCc1cc(Nc2ncc(Br)c(Nc3cc(F)c4nc(C)ccc4c3P(C)(C)=O)n2)c(OC)cc1N1CCC(N2CCN(CCc3ccc4c(c3)oc(=O)n4C3CCC(=O)NC3=O)CC2)CC1 (stereo not drawn) [Example 536, 3-(6-(2-(4-(1-(4-((5-bromo-4-((5-(dimethylphosphoryl)-8-fluoro-2-methylquinolin-6-yl)amino)pyrimidin-2-yl)amino)-2-ethyl-5-methoxyphenyl)piperidin-4-yl)piperazin-1-yl)ethyl)-2-oxobenzo[d]oxazol-3(2H)-yl)piperidine-2,6-dione] | 73.22
10 | 5.66 | 90.1 | 0.769 | CCc1cc(Nc2ncc(Br)c(Nc3ccc4c(=O)n(C)ncc4c3P(C)(C)=O)n2)c(OC)cc1N1CCC(N2CCN(C(=O)C3CN(c4cc(F)c(C5CCC(=O)NC5=O)c(F)c4)C3)CC2)CC1 (stereo not drawn) [Example 520, 3-(4-(3-(4-(1-(4-((5-bromo-4-((5-(dimethylphosphoryl)-2-methyl-1-oxo-1,2-dihydrophthalazin-6-yl)amino)pyrimidin-2-yl)amino)-2-ethyl-5-methoxyphenyl)piperidin-4-yl)piperazine-1-carbonyl)azetidin-1-yl)-2,6-difluorophenyl)piperidine-2,6-dione] | 73.99
11 | 13.2 | 93.2 | 2 | CCOc1cc(N2CCC(N3CCN(CCc4c(F)ccc5c4C(C)(C)C(=O)N5C4CCC(=O)NC4=O)CC3)CC2)c(CC)cc1Nc1ncc(Br)c(Nc2ccc3nc(CC)ccc3c2P(C)(C)=O)n1 (stereo not drawn) [Example 647, 3-(4-(2-(4-(1-(4-((5-bromo-4-((5-(dimethylphosphoryl)-2-ethylquinolin-6-yl)amino)pyrimidin-2-yl)amino)-5-ethoxy-2-ethylphenyl)piperidin-4-yl)piperazin-1-yl)ethyl)-5-fluoro-3,3-dimethyl-2-oxoindolin-1-yl)piperidine-2,6-dione] | 66.66
12 | 6.92 | 89.5 | 0.962 | CCc1ccc2c(P(C)(C)=O)c(Nc3nc(Nc4cc(CC)c(N5CCC(N6CCN(CC7CN(c8cccc9c8oc(=O)n9C8CCC(=O)NC8=O)C7)CC6)CC5)cc4OC)ncc3Br)ccc2n1 (stereo not drawn) [Example 448, 3-(7-(3-((4-(1-(4-((5-bromo-4-((5-(dimethylphosphoryl)-2-ethylquinolin-6-yl)amino)pyrimidin-2-yl)amino)-2-ethyl-5-methoxyphenyl)piperidin-4-yl)piperazin-1-yl)methyl)azetidin-1-yl)-2-oxobenzo[d]oxazol-3(2H)-yl)piperidine-2,6-dione] | 83.19

Row | SMILES | DC50 [1] [nM] | Dmax [1] [%] | DC50 [2] [nM] | Dmax (%) H1975 # 28 DTC [2] [%]
13 | CCc1ccc2c(P(C)(C)=O)c(Nc3nc(Nc4cc(CC)c(N5CCC(N6CCN(C(=O)Cc7cccc8c7n(C)c(=O)n8C7CCC(=O)NC7=O)CC6)CC5)cc4OC)ncc3Br)cc(F)c2n1 (stereo not drawn) [Example 671, 3-(4-(2-(4-(1-(4-((5-bromo-4-((5-(dimethylphosphoryl)-2-ethyl-8-fluoroquinolin-6-yl)amino)pyrimidin-2-yl)amino)-2-ethyl-5-methoxyphenyl)piperidin-4-yl)piperazin-1-yl)-2-oxoethyl)-3-methyl-2-oxo-2,3-dihydro-1H-benzo[d]imidazol-1-yl)piperidine-2,6-dione] | 4.85 | 92.7 | 0.219 | 75.9
